Measured values as given in PubChem BioAssay AID248 (DTP/NCI, 2004).
“And” between values parts separate entries of the source, which are not always exact repeats. Equal entries are not always repeated. Inconclusive results and toxic doses are left out. No stated cut-off is given here; in the data, active means T/C of 150% or more; inactive means T/C below 125%.

Test system: L1210 leukemia ip in BDF1 mice, survival T/C
Assay: NCI In Vivo Anticancer Drug Screen. Data for tumor model L1210 Leukemia (intraperitoneal) in B6D2F1 (BDF1) mice
Conditions: endpoint: mean survival time, higher = longer survival
Procedure, shortened: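 Transplanted-tumor mice were given test agent; controls received vehicle only. Survival readings from the two groups were divided (treated over control).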

[1] = dose: 100.0 mg/kg/injection, schedule: Q01DX009 (ip), vehicle: Klucel (hydroxypropylcellulose) (HPC)
[2] = dose: 200.0 mg/kg/injection, schedule: Q01DX009 (ip), vehicle: Klucel (hydroxypropylcellulose) (HPC)
[3] = dose: 400.0 mg/kg/injection, schedule: Q01DX009 (ip), vehicle: Klucel (hydroxypropylcellulose) (HPC)
[4] = dose: 100.0 mg/kg/injection, schedule: Q01DX001 (ip), vehicle: saline
[5] = dose: 200.0 mg/kg/injection, schedule: Q01DX001 (ip), vehicle: saline
[6] = dose: 100.0 mg/kg/injection, schedule: Q04DX003 (ip), vehicle: Klucel (hydroxypropylcellulose) (HPC)
[7] = dose: 200.0 mg/kg/injection, schedule: Q04DX003 (ip), vehicle: Klucel (hydroxypropylcellulose) (HPC)
[8] = dose: 400.0 mg/kg/injection, schedule: Q04DX003 (ip), vehicle: Klucel (hydroxypropylcellulose) (HPC)
[9] = dose: 100.0 mg/kg/injection, schedule: Q04DX002 (ip), vehicle: saline
[10] = dose: 200.0 mg/kg/injection, schedule: Q04DX002 (ip), vehicle: saline
[11] = dose: 400.0 mg/kg/injection, schedule: Q04DX002 (ip), vehicle: saline
[12] = dose: 100.0 mg/kg/injection, schedule: Q01DX001 (ip), vehicle: Klucel (hydroxypropylcellulose) (HPC)
[13] = dose: 200.0 mg/kg/injection, schedule: Q01DX001 (ip), vehicle: Klucel (hydroxypropylcellulose) (HPC)
[14] = dose: 400.0 mg/kg/injection, schedule: Q01DX001 (ip), vehicle: Klucel (hydroxypropylcellulose) (HPC)
[15] = dose: 100.0 mg/kg/injection, schedule: Q01DX001 (ip), vehicle: other
[16] = dose: 200.0 mg/kg/injection, schedule: Q01DX001 (ip), vehicle: other

Measured: T/C

COC(c1ccccc1)C(Br)C(=O)c1ccccc1 (stereo not drawn)
inactive: dose: 100.0 mg/kg/injection, schedule: Q04DX003 (ip), vehicle: acetone 96 % of control | dose: 200.0 mg/kg/injection, schedule: Q04DX003 (ip), vehicle: acetone 101 % of control | dose: 400.0 mg/kg/injection, schedule: Q04DX003 (ip), vehicle: acetone 95 % of control

Cc1ccc(NC(=O)Oc2ccc(Cl)cc2Cl)cc1NC(=O)Oc1ccc(Cl)cc1Cl
inactive: [1] 89 % of control | [2] 94 % of control | [3] 89 % of control

C[N+]1(CCCNC(=O)Nc2ccc(Cl)cc2)CCOCC1
inactive: dose: 12.5 mg/kg/injection, schedule: Q04DX002 (ip), vehicle: saline 105 % of control | dose: 25.0 mg/kg/injection, schedule: Q04DX002 (ip), vehicle: saline 102 % of control | dose: 50.0 mg/kg/injection, schedule: Q04DX002 (ip), vehicle: saline 97 % of control

CN(C)C(C(N)=O)C(=O)c1ccccc1 (stereo not drawn)
inactive: [4] 102 % of control | [5] 104 % of control | dose: 400.0 mg/kg/injection, schedule: Q01DX001 (ip), vehicle: saline 88 % of control

Cc1c2cnccc2c(C)c2c1c1ccccc1n2CCCl
inactive: dose: 31.25 mg/kg/injection, schedule: Q01DX009 (ip), vehicle: saline with Tween-80 106 % of control | dose: 37.5 mg/kg/injection, schedule: Q04DX003 (ip), vehicle: saline 93 % of control | dose: 62.5 mg/kg/injection, schedule: Q01DX009 (ip), vehicle: saline with Tween-80 109 % of control | dose: 75.0 mg/kg/injection, schedule: Q04DX003 (ip), vehicle: saline 97 % of control | dose: 150.0 mg/kg/injection, schedule: Q04DX003 (ip), vehicle: saline 98 % of control | dose: 300.0 mg/kg/injection, schedule: Q04DX003 (ip), vehicle: saline 100 % of control

Cc1ccc(NC(N)=S)nc1
inactive: [6] 100 % of control | [7] 94 % of control | [8] 99 % of control

Nc1ccc(C(F)(F)F)cc1[N+](=O)[O-]
inactive: [9] 118 % of control | [10] 103 % of control | [11] 107 % of control

CC1CCCCN1C(=O)CCCCl (stereo not drawn)
inactive: [9] 111 % of control | [10] 101 % of control | [11] 88 % of control

C=CC[n+]1ccccc1C
inactive: dose: 50.0 mg/kg/injection, schedule: Q01DX009 (ip), vehicle: saline with Tween-80 91 % of control | dose: 100.0 mg/kg/injection, schedule: Q01DX009 (ip), vehicle: saline with Tween-80 91 % of control

CC(C)NC(=O)c1ccccc1
inactive: [12] 96 % of control | [6] 96 % of control | [13] 98 % of control | [7] 103 % of control | [14] 101 % of control | [8] 101 % of control

CNNP1(=O)OCC(C)([N+](=O)[O-])CO1 (stereo not drawn)
inactive: [4] 101 % of control | [5] 101 % of control

C[C-]=O.C[C-]=O.[Br][Pd][Br]
inactive: dose: 100.0 mg/kg/injection, schedule: Q01DX001 (ip), vehicle: saline with Tween-80 97 % of control | dose: 200.0 mg/kg/injection, schedule: Q01DX001 (ip), vehicle: saline with Tween-80 100 % of control | dose: 400.0 mg/kg/injection, schedule: Q01DX001 (ip), vehicle: saline with Tween-80 107 % of control

CCCCn1cnc2c(SC3CCCC3)ncnc21
inactive: [15] 98 % of control | [16] 96 % of control | dose: 400.0 mg/kg/injection, schedule: Q01DX001 (ip), vehicle: other 93 % of control

CC(C)(C)c1cc(/C=N/NC(=O)CNC(=O)Nc2cccc(C(F)(F)F)c2)cc(C(C)(C)C)c1O
inactive: dose: 100.0 mg/kg/injection, schedule: Q01DX001 (ip), vehicle: gum acacia 92 % of control and 94 % of control | dose: 100.0 mg/kg/injection, schedule: Q04DX002 (ip), vehicle: gum acacia 98 % of control and 90 % of control | dose: 100.0 mg/kg/injection, schedule: Q04DX003 (ip), vehicle: gum acacia 99 % of control and 87 % of control | dose: 200.0 mg/kg/injection, schedule: Q01DX001 (ip), vehicle: gum acacia 94 % of control and 90 % of control | dose: 200.0 mg/kg/injection, schedule: Q04DX002 (ip), vehicle: gum acacia 93 % of control | dose: 200.0 mg/kg/injection, schedule: Q04DX003 (ip), vehicle: gum acacia 92 % of control and 96 % of control | dose: 400.0 mg/kg/injection, schedule: Q01DX001 (ip), vehicle: gum acacia 94 % of control and 102 % of control | dose: 400.0 mg/kg/injection, schedule: Q04DX002 (ip), vehicle: gum acacia 93 % of control and 87 % of control | dose: 400.0 mg/kg/injection, schedule: Q04DX003 (ip), vehicle: gum acacia 92 % of control and 89 % of control

CNc1n[nH]c(=S)s1
inactive: dose: 100.0 mg/kg/injection, schedule: Q04DX002 (ip), vehicle: Klucel (hydroxypropylcellulose) (HPC) 101 % of control | dose: 200.0 mg/kg/injection, schedule: Q04DX002 (ip), vehicle: Klucel (hydroxypropylcellulose) (HPC) 104 % of control | dose: 400.0 mg/kg/injection, schedule: Q04DX002 (ip), vehicle: Klucel (hydroxypropylcellulose) (HPC) 104 % of control

CCOc1ccc2nc(Cl)sc2c1
inactive: dose: 50.0 mg/kg/injection, schedule: Q01DX009 (ip), vehicle: Klucel (hydroxypropylcellulose) (HPC) 92 % of control | dose: 75.0 mg/kg/injection, schedule: Q04DX003 (ip), vehicle: Klucel (hydroxypropylcellulose) (HPC) 93 % of control | [1] 94 % of control | dose: 150.0 mg/kg/injection, schedule: Q04DX003 (ip), vehicle: Klucel (hydroxypropylcellulose) (HPC) 96 % of control

CCC(O)(C1=NC(C)(C)CO1)c1ccncc1Br (stereo not drawn)
inactive: [12] 100 % of control | [13] 94 % of control | [14] 97 % of control

CC1(C)N=C(c2ccccc2)C2(c3ccccc3)N1C2(C)C (stereo not drawn)
inactive: dose: 6.0 mg/kg/injection, schedule: Q01DX001 (ip), vehicle: Klucel (hydroxypropylcellulose) (HPC) 92 % of control | dose: 12.0 mg/kg/injection, schedule: Q01DX001 (ip), vehicle: Klucel (hydroxypropylcellulose) (HPC) 101 % of control | dose: 25.0 mg/kg/injection, schedule: Q01DX001 (ip), vehicle: Klucel (hydroxypropylcellulose) (HPC) 101 % of control

O=C(COc1ccc(Cl)cc1Cl)Nc1ccccc1[N+](=O)[O-]
inactive: [9] 92 % of control | [10] 92 % of control | [11] 92 % of control

COc1cc2ccncc2cc1Oc1ccc(C)cc1
inactive: dose: 50.0 mg/kg/injection, schedule: Q01DX001 (ip), vehicle: other 97 % of control | [15] 104 % of control | [16] 97 % of control

O=c1[nH]cc(Cl)cc1Cl
inactive: [1] 94 % of control | [2] 94 % of control | [3] 108 % of control

C/C(=N\N)C(=O)c1ccccc1
inactive: [12] 103 % of control | [6] 98 % of control | [13] 93 % of control | [7] 94 % of control | [14] 101 % of control | [8] 96 % of control

CC(CCN1CCOCC1)(CNC1=NCCN1)c1cccc2ccccc12 (stereo not drawn)
inactive: dose: 5.0 mg/kg/injection, schedule: Q01DX009 (ip), vehicle: saline with Tween-80 100 % of control | dose: 10.0 mg/kg/injection, schedule: Q01DX009 (ip), vehicle: saline with Tween-80 96 % of control | dose: 20.0 mg/kg/injection, schedule: Q01DX009 (ip), vehicle: saline with Tween-80 103 % of control
